Assay results: ChEMBL document CHEMBL1201862, “PubChem BioAssay data set” (2004)
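Following 48 hours of exposure in 96-well plates, responses at five concentrations were used to interpolate endpoints linearly. Here, GI50 denotes the concentration required for 50% inhibition of growth.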 Active and inactive are the calls of the source. Cut-off read from the data, not from the text of the source: active = GI50 up to about 1.1 µM and inactive = higher.

Assays:
Test in all cases: NCI-60 cell line screen, 48 h
[1] = tested on: BT-549
[2] = tested on: DU-145
[3] = tested on: Hs-578T
[4] = tested on: MDA-MB-231
[5] = tested on: MDA-N
[6] = tested on: T47D
[7] = tested on: 786-0
[8] = tested on: LXFL 529
[9] = tested on: RXF 631

Measured: GI50

CN1C(=O)CC(=O)N1/C(=C/c1ccccc1)c1ccccc1
inactive: [1] > 100 µM | [2] > 100 µM | [3] 28.2 µM | [4] 12.6 µM | [5] > 100 µM | [6] > 100 µM

COC(=O)C(/C(=N/NC(N)=S)C(=O)Nc1ccccc1[N+](=O)[O-])c1cnc2ccccc2n1 (stereo unspecified)
inactive: [7] > 100 µM | [8] > 100 µM | [9] > 100 µM

CCOC(=O)C1(C(F)(F)F)N=C(CC)OC(N2CCOCC2)=N1 (stereo unspecified)
inactive: [1] > 100 µM | [2] > 100 µM | [3] > 100 µM | [4] > 100 µM | [5] > 100 µM | [6] 46.6 µM

O=C(O)c1ccc(C(=O)O)c2c(C(=O)O)ccc(C(=O)O)c12
inactive: [7] > 100 µM | [2] > 100 µM | [3] > 100 µM | [4] > 100 µM | [5] > 100 µM | [6] > 100 µM

O=C1C2C3C=C4c5ccccc5N(c5ccccc5)C4(C2C(=O)N1Cc1ccccc1)C1C(=O)N(Cc2ccccc2)C(=O)C31 (stereo unspecified)
inactive: [7] > 100 µM | [8] > 100 µM | [9] > 100 µM

O=C(O)C(F)(F)C(F)(F)C(F)(F)C(F)(F)C(F)(F)C(F)(F)C(F)(F)C(F)(F)F
inactive: [7] 83.9 µM | [1] 49.1 µM | [2] 47.6 µM | [3] 29.9 µM | [4] 46.2 µM | [5] 40.4 µM | [6] 57.3 µM

C[Si](C)(C)/C(I)=C/CO
inactive: [7] 37.3 µM | [8] 34.6 µM | [9] 26.4 µM

COc1ccc(/C(Cl)=C(\C=O)c2ccc(F)cc2)cc1
inactive: [8] 6.27 µM | [9] 19.8 µM

Cc1ccnc2nc(N)ccc12
inactive: [7] > 100 µM | [1] > 100 µM | [2] > 100 µM | [3] > 100 µM | [4] > 100 µM | [5] > 100 µM | [6] > 100 µM

COc1c2c(cc3c(CCc4ccccc4)cc(=O)oc13)CCC(C)(C)O2
inactive: [8] > 100 µM

CCOC(=O)C(=O)NC12CC3CC(CC(C3)C1)C2
inactive: [8] > 100 µM | [9] > 100 µM

CC=C/C=C/[C@@H]1O[C@](O)([C@H](CC)C(=O)NC/C=C/C=C(\C)[C@@H](OC)[C@@H](C)[C@@H]2O[C@H](/C=C/C=C/C=C(\C)C(=O)c3c(O)cc[nH]c3=O)[C@H](O)[C@@H]2O)[C@H](O)[C@H](O)C1(C)C
inactive: [3] 43.4 µM

O=C(O)C(O)Cc1ccccn1 (stereo unspecified)
inactive: [1] > 100 µM | [2] > 100 µM | [3] > 100 µM | [4] > 100 µM | [6] > 100 µM

O=S1(=O)CC#CC[C@@H](CO)[C@@H](CO)CC#CC1
inactive: [7] > 100 µM | [8] 71.3 µM

C=CC1(c2ccccc2Cl)N/C(=C/OCC)CO1 (stereo unspecified)
inactive: [7] 51.5 µM | [8] > 100 µM | [9] > 100 µM

Cc1ccc2c3c1[C@@H]1O[C@@H]1c1cccc(c1-3)[C@@H]1O[C@H]21
inactive: [1] 17.9 µM | [2] 11 µM | [3] 21.3 µM | [4] 18 µM | [5] 14.4 µM | [6] 3.08 µM

O=C1C=C/C(=C/[C@H]2SSC=C[C@]23C=CC(=O)C3)C1
inactive: [7] 7.55 µM | [1] 18.9 µM | [2] 20.2 µM | [3] 10.8 µM | [4] 28.1 µM | [5] 17.5 µM | [6] 36.1 µM

CC(=C(c1ccccc1)c1ccccc1)N1C(=O)CC(=O)N1C
inactive: [1] 34.8 µM | [2] > 100 µM | [3] 20.3 µM | [5] 48.3 µM | [6] 78.2 µM

CN(C)C(=O)C(F)(F)C(c1ccc(Br)cc1)C1C(=O)N(C)C(=O)N(C)C1=O (stereo unspecified)
inactive: [7] > 100 µM | [1] > 100 µM | [2] > 100 µM | [4] > 100 µM | [6] > 100 µM

COC(=O)C(Cc1ccc(N(C)C)cc1)(NC(=O)c1ccccc1)P(=O)(OC)OC (stereo unspecified)
inactive: [8] > 100 µM

CN(C1=NCCO1)c1cccc2ccccc12
inactive: [2] > 10 µM | [3] > 10 µM | [4] > 10 µM | [5] > 10 µM | [6] > 10 µM
